Measurements as given in patent US12421253B2 (Mirati Therapeutics, Inc., priority 2020, dated 2025).

Tests used:
KRas^G12V = target: T1, KRas^G12V (Homo sapiens, UniProt P01116, G12V); assay: KRas binding assay (TR-FRET displacement of Cy5 labelled tracer)
T1 construct: […]; biotin (biotinylated); purchased Accelegan Inc

KRas^G12R = target: T2, KRas^G12R (Homo sapiens, UniProt P01116, G12R); assay: as above
T2 construct: […]; biotin (biotinylated); purchased Accelegan Inc

KRas^G12D = target: T3, KRas^G12D (Homo sapiens, UniProt P01116, G12D); assay: as above
T3 construct: […]; biotin (biotinylated); purchased Accelegan Inc

ASPC1 cells, pERK = assay: Inhibition of KRas phosphorylation of ERK (Cisbio HTRF Advanced pERK assay); type: cell-based; settings: Homo sapiens, ASPC1, 3 h, AsPC-1 cells, read-out: Inhibition (HTRF IC50 nM) of KRas-mediated Phosphorylation of ERK, AsPC-1
Procedure, shortened: (§1)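 Overnight-plated cells (RPMI, 10% FBS); compound 3 h, 37 °C, 10 uM top, 3-fold x10, 0.8% DMSO; min ctrl trametinib 0.2 uM; lysis 40 min 4 °C; pERK by HTRF, 2 h RT.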

H727 cells, pERK = assay: as above; type: cell-based; settings: Homo sapiens, NCI-H727, 3 h, read-out: Inhibition (HTRF IC50 nM) of KRas-mediated Phosphorylation of ERK, H727
Procedure, shortened: as §1

PSN1 cells, pERK = assay: as above; type: cell-based; settings: Homo sapiens, PSN1, 3 h, read-out: Inhibition (HTRF IC50 nM) of KRas-mediated Phosphorylation of ERK, PSN1
Procedure, shortened: as §1

MKN1 cells, pERK = assay: as above; type: cell-based; settings: Homo sapiens, MKN-1, 3 h, read-out: Inhibition (HTRF IC50 nM) of KRas-mediated Phosphorylation of ERK, MKN1
Procedure, shortened: as §1

H460 cells, pERK = assay: as above; type: cell-based; settings: Homo sapiens, NCI-H460, 3 hrs, read-out: Inhibition (HTRF IC50 nM) of KRas-mediated Phosphorylation of ERK, H460
Procedure, shortened: as §1

HCT116 cells, pERK = assay: as above; type: cell-based; settings: Homo sapiens, HCT-116, 3 hrs, read-out: Inhibition (HTRF IC50 nM) of KRas-mediated Phosphorylation of ERK, HCT116
Procedure, shortened: as §1

T1 sequence (P01116 1-169 isoform P01116-2 G12V): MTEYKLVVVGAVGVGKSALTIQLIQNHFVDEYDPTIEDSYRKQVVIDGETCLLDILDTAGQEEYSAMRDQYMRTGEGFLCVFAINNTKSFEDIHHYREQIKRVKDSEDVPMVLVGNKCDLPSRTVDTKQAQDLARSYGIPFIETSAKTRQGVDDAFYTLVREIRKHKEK
T2 sequence (P01116 1-169 isoform P01116-2 G12R): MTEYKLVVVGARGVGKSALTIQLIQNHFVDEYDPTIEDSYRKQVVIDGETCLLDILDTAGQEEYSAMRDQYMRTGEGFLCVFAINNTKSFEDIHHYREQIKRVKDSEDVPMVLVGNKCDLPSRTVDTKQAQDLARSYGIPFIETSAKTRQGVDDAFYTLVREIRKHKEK
T3 sequence (P01116 1-169 isoform P01116-2 G12D): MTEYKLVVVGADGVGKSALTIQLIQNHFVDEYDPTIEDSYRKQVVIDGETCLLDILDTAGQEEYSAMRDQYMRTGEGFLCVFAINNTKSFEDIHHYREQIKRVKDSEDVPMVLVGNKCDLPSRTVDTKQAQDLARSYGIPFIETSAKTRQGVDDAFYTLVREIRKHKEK

| IC50 (KRas^G12V) | IC50 (KRas^G12R) | IC50 (KRas^G12D) | IC50 (ASPC1 cells, pERK) | IC50 (H727 cells, pERK) | IC50 (PSN1 cells, pERK) | IC50 (MKN1 cells, pERK) | IC50 (H460 cells, pERK) | IC50 (HCT116 cells, pERK) | SMILES |
| --- | --- | --- | --- | --- | --- | --- | --- | --- | --- |
| ≤ 2 nM | ≤ 2 nM | ≤ 2 nM | 320 nM | 234 nM | 607 nM | 19 nM | 325 nM | – | O=C1CC2(CCCN(c3nc(OC[C@@]45CCCN4C[C@H](F)C5)nc4c3CCN(c3cc(O)cc5ccc(F)c(Br)c35)C4)C2)N1 (stereo partly drawn) [Example 223, 6-(7-(8-bromo-7-fluoro-3-hydroxynaphthalen-1-yl)-2-(((2R,7aS)-2-fluorohexahydro-1H-pyrrolizin-7a-yl)methoxy)-5,6,7,8-tetrahydropyrido[3,4-d]pyrimidin-4-yl)-1,6-diazaspiro[3.5]nonan-2-one] |
| 3 nM | 4 nM | 3 nM | 448 nM | 1580 nM | 6120 nM | 97 nM | 1020 nM | – | CC1(O)COCCN(c2nc(OC[C@@]34CCCN3C[C@H](F)C4)nc3c2CCN(c2cc(O)cc4ccc(F)c(Br)c24)C3)C1 (stereo partly drawn) [Example 219, 4-(7-(8-bromo-7-fluoro-3-hydroxynaphthalen-1-yl)-2-(((2R,7aS)-2-fluorohexahydro-1H-pyrrolizin-7a-yl)methoxy)-5,6,7,8-tetrahydropyrido[3,4-d]pyrimidin-4-yl)-6-methyl-1,4-oxazepan-6-ol] |
| ≤ 2 nM | ≤ 2 nM | 3 nM | 1290 nM | 739 nM | 4420 nM | 26 nM | – | 1210 nM | CCc1c(F)ccc2cc(O)cc(N3CCc4c(nc(OC[C@@]56CCCN5C[C@H](F)C6)nc4N4CCOCC(CO)C4)C3)c12 (stereo partly drawn) [Example 65, 5-ethyl-6-fluoro-4-(2-(((2R,7aS)-2-fluorohexahydro-1H-pyrrolizin-7a-yl)methoxy)-4-(6-(hydroxymethyl)-1,4-oxazepan-4-yl)-5,6-dihydropyrido[3,4-d]pyrimidin-7(8H)-yl)naphthalen-2-ol] |
| 3 nM | ≤ 2 nM | ≤ 2 nM | 128 nM | 242 nM | ≥ 10000 nM | 128 nM | – | 2160 nM | Nc1cc2n(n1)CCCN(c1nc(OC[C@@]34CCCN3C[C@H](F)C4)nc3c1CCN(c1cc(O)cc4ccc(F)c(Cl)c14)C3)C2 [Example 75, 4-(4-(2-amino-7,8-dihydro-4H-pyrazolo[1,5-a][1,4]diazepin-5(6H)-yl)-2-(((2R,7aS)-2-fluorohexahydro-1H-pyrrolizin-7a-yl)methoxy)-5,6-dihydropyrido[3,4-d]pyrimidin-7(8H)-yl)-5-chloro-6-fluoronaphthalen-2-ol] |
| 4 nM | 9 nM | 4 nM | 211 nM | 1200 nM | 3650 nM | 51 nM | – | 2380 nM | CCc1c(F)ccc2cc(O)cc(N3CCc4c(nc(OC[C@@]56CCCN5C[C@H](F)C6)nc4N4CCCC5(CNS(=O)(=O)N5)C4)C3)c12 (stereo partly drawn) [Example 61, 7-(7-(8-ethyl-7-fluoro-3-hydroxynaphthalen-1-yl)-2-(((2R,7aS)-2-fluorohexahydro-1H-pyrrolizin-7a-yl)methoxy)-5,6,7,8-tetrahydropyrido[3,4-d]pyrimidin-4-yl)-2-thia-1,3,7-triazaspiro[4.5]decane 2,2-dioxide] |
| ≤ 2 nM | ≤ 2 nM | ≤ 2 nM | 705 nM | 471 nM | 750 nM | 40 nM | – | 1490 nM | O=C1CC2(CCCN(c3nc(OC[C@@]45CCCN4C[C@H](F)C5)nc4c3CCN(c3cc(O)cc5ccc(F)c(Cl)c35)C4)C2)N1 (stereo partly drawn) [Example 70, 6-(7-(8-chloro-7-fluoro-3-hydroxynaphthalen-1-yl)-2-(((2R,7aS)-2-fluorohexahydro-1H-pyrrolizin-7a-yl)methoxy)-5,6,7,8-tetrahydropyrido[3,4-d]pyrimidin-4-yl)-1,6-diazaspiro[3.5]nonan-2-one] |
| 8 nM | 6 nM | 4 nM | 383 nM | 600 nM | ≥ 10000 nM | 462 nM | 1560 nM | – | CCc1c(F)ccc2cc(O)cc(N3CCc4c(nc(OC[C@@]56CCCN5C[C@H](F)C6)nc4N4CCCc5ncccc5C4)C3)c12 [Example 180, 4-(4-(8,9-dihydro-5H-pyrido[3,2-c]azepin-6(7H)-yl)-2-(((2R,7aS)-2-fluorohexahydro-1H-pyrrolizin-7a-yl)methoxy)-5,6-dihydropyrido[3,4-d]pyrimidin-7(8H)-yl)-5-ethyl-6-fluoronaphthalen-2-ol] |
| ≤ 2 nM | ≤ 2 nM | ≤ 2 nM | 556 nM | 258 nM | 6610 nM | 29 nM | – | 1120 nM | CCc1c(F)ccc2cc(O)cc(N3CCc4c(nc(OC[C@@]56CCCN5C[C@H](F)C6)nc4N4CCCC5(CC(O)C5)C4)C3)c12 (stereo partly drawn) [Example 60, 6-(7-(8-ethyl-7-fluoro-3-hydroxynaphthalen-1-yl)-2-(((2R,7aS)-2-fluorohexahydro-1H-pyrrolizin-7a-yl)methoxy)-5,6,7,8-tetrahydropyrido[3,4-d]pyrimidin-4-yl)-6-azaspiro[3.5]nonan-2-ol] |
| ≤ 2 nM | ≤ 2 nM | ≤ 2 nM | 595 nM | 778 nM | 2630 nM | 83 nM | – | 891 nM | CCc1c(F)ccc2cc(O)cc(N3CCc4c(nc(OC[C@@]56CCCN5C[C@H](F)C6)nc4N4CCCC5(CNC5=O)C4)C3)c12 (stereo partly drawn) [Example 64, 6-(7-(8-ethyl-7-fluoro-3-hydroxynaphthalen-1-yl)-2-(((2R,7aS)-2-fluorohexahydro-1H-pyrrolizin-7a-yl)methoxy)-5,6,7,8-tetrahydropyrido[3,4-d]pyrimidin-4-yl)-2,6-diazaspiro[3.5]nonan-1-one] |
| ≤ 2 nM | ≤ 2 nM | ≤ 2 nM | 17 nM | 68 nM | 7620 nM | 20 nM | – | – | CCc1c(F)ccc2cc(O)cc(N3CCc4c(nc(OC[C@@]56CCCN5C[C@H](F)C6)nc4N4CCCn5nncc5C4)C3)c12 [Example 178, 4-(4-(7,8-dihydro-4H-[1,2,3]triazolo[1,5-a][1,4]diazepin-5(6H)-yl)-2-(((2R,7aS)-2-fluorotetrahydro-1H-pyrrolizin-7a(5H)-yl)methoxy)-5,8-dihydropyrido[3,4-d]pyrimidin-7(6H)-yl)-5-ethyl-6-fluoronaphthalen-2-ol] |
| 3 nM | 4 nM | ≤ 2 nM | 253 nM | 790 nM | 4050 nM | 78 nM | – | 1450 nM | CC1(O)COCCN(c2nc(OC[C@@]34CCCN3C[C@H](F)C4)nc3c2CCN(c2cc(O)cc4ccc(F)c(Cl)c24)C3)C1 (stereo partly drawn) [Example 74, 4-(7-(8-chloro-7-fluoro-3-hydroxynaphthalen-1-yl)-2-(((2R,7aS)-2-fluorohexahydro-1H-pyrrolizin-7a-yl)methoxy)-5,6,7,8-tetrahydropyrido[3,4-d]pyrimidin-4-yl)-6-methyl-1,4-oxazepan-6-ol] |
| 101 nM | 80 nM | 207 nM | 5170 nM | 4790 nM | ≥ 10000 nM | 1210 nM | – | – | CCc1c(F)ccc2cc(O)cc(N3CCc4c(nc(OC[C@@]56CCCN5C[C@H](F)C6)nc4N4CC5CC(O)CC(C5)C4)C3)c12 (stereo partly drawn) [Example 179, 3-(7-(8-ethyl-7-fluoro-3-hydroxynaphthalen-1-yl)-2-(((2R,7aS)-2-fluorohexahydro-1H-pyrrolizin-7a-yl)methoxy)-5,6,7,8-tetrahydropyrido[3,4-d]pyrimidin-4-yl)-3-azabicyclo[3.3.1]nonan-7-ol] |
| ≤ 2 nM | ≤ 2 nM | 8 nM | 457 nM | 608 nM | 6960 nM | 33 nM | – | 1170 nM | CCc1c(F)ccc2cc(O)cc(N3CCc4c(nc(OC[C@@]56CCCN5C[C@H](F)C6)nc4N4CC5CC(O)C(C5)C4)C3)c12 (stereo partly drawn) [Example 63, 3-(7-(8-ethyl-7-fluoro-3-hydroxynaphthalen-1-yl)-2-(((2R,7aS)-2-fluorohexahydro-1H-pyrrolizin-7a-yl)methoxy)-5,6,7,8-tetrahydropyrido[3,4-d]pyrimidin-4-yl)-3-azabicyclo[3.2.1]octan-6-ol] |
